The record followed here is patent US11186564B2, “Dual NAV1.2/5HT2a inhibitors for treating CNS disorders” (Sunovion Pharmaceuticals Inc., priority 2016, dated 2021).

Some results are limits rather than exact numbers.

For the first experiment, the target named is T1, recombinant human serotonin receptor 5-HT2A (Homo sapiens, UniProt P28223).
T1 construct: expressed in transfected cells; method B: loaded with Ca2+ dye
T1 sequence (P28223 whole entry): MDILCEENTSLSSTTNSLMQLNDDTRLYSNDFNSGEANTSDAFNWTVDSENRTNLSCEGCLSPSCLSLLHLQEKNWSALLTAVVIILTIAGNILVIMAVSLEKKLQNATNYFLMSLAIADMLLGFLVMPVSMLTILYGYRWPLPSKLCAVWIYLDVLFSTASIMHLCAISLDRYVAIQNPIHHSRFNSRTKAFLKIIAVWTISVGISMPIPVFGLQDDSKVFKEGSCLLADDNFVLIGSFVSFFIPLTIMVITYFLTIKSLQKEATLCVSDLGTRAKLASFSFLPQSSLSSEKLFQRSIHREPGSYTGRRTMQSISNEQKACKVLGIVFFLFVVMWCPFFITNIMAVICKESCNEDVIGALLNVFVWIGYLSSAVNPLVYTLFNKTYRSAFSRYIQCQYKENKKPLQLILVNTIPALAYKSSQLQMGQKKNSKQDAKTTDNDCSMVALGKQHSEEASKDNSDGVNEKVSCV
In words: 5-HT2A antagonist Ca2+ assay in CHO-K1 cells (method A aequorin luminescence / method B FLIPR fluorescence). Format: cell-based. Particulars: 5HT2A IC50, μM, antagonist mode vs EC80 of reference agonist, method A or B. A digest of the protocol: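 Method A: CHO-K1 cells co-expressing human 5-HT2A and mitochondrial apoaequorin were given reference agonist at EC80 15 min after compound, with luminescence read. Method B: dye-loaded 5-HT2A CHO-K1 cells were pretreated with compound, then given serotonin at EC80, with FLIPR fluorescence read. IC50s came from nonlinear fits of percent inhibition.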
Regarding `c1ccc2c(c1)COC21CCN(CC2COc3ccccc32)CC1` (stereo not drawn) [Example 391, 1′-((2,3-dihydrobenzofuran-3-yl)methyl)-3H-spiro[isobenzofuran-1,4′-piperidine]], the half-inhibitory concentration (IC50) stood at 14.1 µM.

Staying with this experiment, now noted: antagonist mode vs EC80 of reference agonist, method A or B, read-out: 5HT2A IC50.
`COc1ccccc1N1CCC2(CCN(CC3Cc4cccnc4C3)C2)C1` (stereo not drawn) [Example 338, 2-((6,7-dihydro-5H-cyclopenta[b]pyridin-6-yl)methyl)-7-(2-methoxyphenyl)-2,7-diazaspiro[4.4]nonane]: the IC50 was over 10 µM.
As to `O[C@@H](COC1CCCCC1)CN1[C@@H]2CC[C@H]1CN(c1nccs1)C2` [Example 291, (R)-1-(cyclohexyloxy)-3-((1R,5S)-3-(thiazol-2-yl)-3,8-diazabicyclo[3.2.1]octan-8-yl)propan-2-ol], the half-maximal inhibitory concentration (IC50) is over 10 µM.
Same read-out and setting: next, `COc1ccccc1OC1CCN(CC2CCc3cc(C#N)ccc32)CC1` (stereo not drawn) [Example 99, 1-((4-(2-methoxyphenoxy)piperidin-1-yl)methyl)-2,3-dihydro-1H-indene-5-carbonitrile]: 0.45 µM; `COc1ccc2c(c1)C(CN1CCC(OCc3ccncc3)CC1)CC2` (stereo not drawn) [Example 248, 4-(((1-((6-methoxy-2,3-dihydro-1H-inden-1-yl)methyl)piperidin-4-yl)oxy)methyl)pyridine]: over 3.16 µM; `OC(CO[C@H]1CCc2ccccc21)CN1CC[C@H](Oc2ccc(F)cc2)C1` (stereo partly drawn) [Example 43, 1-(((S)-2,3-dihydro-1H-inden-1-yl)oxy)-3-((S)-3-(4-fluorophenoxy)pyrrolidin-1-yl)propan-2-ol]: 2.08 µM.
On to `O=C1c2ccccc2CCN1CCN1CC[C@@H](Oc2ccccn2)C1` [Example 15, (R)-2-(2-(3-(pyridin-2-yloxy)pyrrolidin-1-yl)ethyl)-3,4-dihydroisoquinolin-1(2H)-one], for which the half-maximal inhibitory concentration (IC50) was over 16.7 µM.
Still for that read-out and setting: then `O[C@H](COC1CCCCC1)CN1CCC[C@@H](Oc2ccc(F)cc2)C1` [Example 266, (S)-1-(cyclohexyloxy)-3-((R)-3-(4-fluorophenoxy)piperidin-1-yl)propan-2-ol], with over 12.9 µM; and `OC(CO[C@H]1CCc2ccccc21)CN1CCC(Oc2ccc(F)cc2)CC1` (stereo in doubt) [Example 237, (R)-1-(((S)-2,3-dihydro-1H-inden-1-yl)oxy)-3-(4-(4-fluorophenoxy)piperidin-1-yl)propan-2-ol], with 0.6 µM.
With `O=C1c2ccccc2CCN1CCN1CC[C@H](Oc2ccncc2)C1` [Example 30, (S)-2-(2-(3-(pyridin-4-yloxy)pyrrolidin-1-yl)ethyl)-3,4-dihydroisoquinolin-1(2H)-one], the IC50 was over 16.7 µM.
Take `OC(CO[C@H]1CCCc2ccccc21)CN1CC[C@H](Oc2ccc(F)cc2)C1` (stereo partly drawn) [Example 49, 1-((S)-3-(4-fluorophenoxy)pyrrolidin-1-yl)-3-(((S)-1,2,3,4-tetrahydronaphthalen-1-yl)oxy)propan-2-ol]: the IC50 was determined as 2.55 µM.
Take `OC(COc1ccccc1)CN1C[C@@H]2C[C@H]1CN2c1ccccc1` (stereo partly drawn) [Example 307, 1-phenoxy-3-((1S,4S)-5-phenyl-2,5-diazabicyclo[2.2.1]heptan-2-yl)propan-2-ol]: the concentration for half-maximal inhibition (IC50) is 10.4 µM.
`O=C1CC2(CN(CC3CCc4ccccc43)C2)Oc2ccccc21` (stereo not drawn) [Example 386, 1-((2,3-dihydro-1H-inden-1-yl)methyl)spiro[azetidine-3,2′-chroman]-4′-one]: the half-maximal inhibitory concentration (IC50) stood at 3.76 µM.
Still for that read-out and setting: then `c1ccc(N2C[C@@H]3C[C@H]2CCN3CC2Cc3ccncc3C2)cc1` (stereo partly drawn) [Example 321, 6-(((1S,5R)-6-phenyl-2,6-diazabicyclo[3.2.1]octan-2-yl)methyl)-6,7-dihydro-5H-cyclopenta[c]pyridine], with over 10 µM; and `OC(CO[C@H]1CCc2ccccc21)CN1CC[C@@H](Oc2cccc(F)c2)C1` (stereo partly drawn) [Example 34, 1-(((S)-2,3-dihydro-1H-inden-1-yl)oxy)-3-((R)-3-(3-fluorophenoxy)pyrrolidin-1-yl)propan-2-ol], with 4.66 µM.
As to `CC(C1CCc2ccccc21)N1CCC[C@H](Oc2ccc(F)cc2)C1` (stereo partly drawn) [Example 257, (3S)-1-(1-(2,3-dihydro-1H-inden-1-yl)ethyl)-3-(4-fluorophenoxy) piperidine], the 50% inhibitory concentration (IC50) is over 10 µM.
`O=C1CC2(CCN(CC3CCc4ccccc43)CC2)Oc2ccccc21` (stereo not drawn) [Example 444, l′-((2,3-dihydro-1H-inden-1-yl)methyl)spiro[chromane-2,4′-piperidin]-4-one]: the IC50 was 1.44 µM.
With `c1ccc2c(c1)CCC1(CCN(CC3CCc4ncccc43)CC1)O2` (stereo not drawn) [Example 407, 1′-((6,7-dihydro-5H-cyclopenta[b]pyridin-5-yl)methyl)spiro[chromane-2,4′-piperidine]], the half-maximal inhibitory concentration (IC50) came to 3.64 µM.
Take `COc1ccccc1OC1CCN(CC2(C)CCc3ccccc32)CC1` (stereo not drawn) [Example 96, 4-(2-methoxyphenoxy)-1-((1-methyl-2,3-dihydro-1H-inden-1-yl)methyl)piperidine]: the concentration for half-maximal inhibition (IC50) was over 10 µM.
Turning to `COc1ccccc1N1CCC2(CCN(CC3CCc4cccnc43)C2)C1` (stereo not drawn) [Example 336, 2-((6,7-dihydro-5H-cyclopenta[b]pyridin-7-yl)methyl)-7-(2-methoxyphenyl)-2,7-diazaspiro[4.4]nonane], the half-maximal inhibitory concentration (IC50) is 3.28 µM.
Consider `CC(CN1CCc2ccccc2C1=O)N1CCC(Oc2ccc(F)cc2)CC1` (stereo not drawn) [Example 204, 2-(2-(4-(4-fluorophenoxy)piperidin-1-yl)propyl)-3,4-dihydroisoquinolin-1(2H)-one], for which the IC50 was found to be 0.56 µM.
`COc1ccccc1OC1CCN(CC2(C)Cc3ccccc3C2)CC1` [Example 146, 4-(2-methoxyphenoxy)-1-((2-methyl-2,3-dihydro-1H-inden-2-yl)methyl)piperidine]: the half-maximal inhibitory concentration (IC50) was over 1 µM.
On to `COc1cccc(CN2CCC3(CCN(c4ccccc4)C3)C2)c1` (stereo not drawn) [Example 343, 2-(3-methoxybenzyl)-7-phenyl-2,7-diazaspiro[4.4]nonane], for which the 50% inhibitory concentration (IC50) came to 2.46 µM.
Regarding `N#Cc1ccc(O[C@@H]2CCN(CCN3CCc4ccccc4C3=O)C2)cc1` [Example 31, (R)-4-((1-(2-(1-oxo-3,4-dihydroisoquinolin-2(1H)-yl)ethyl)pyrrolidin-3-yl)oxy) benzonitrile], the IC50 was over 16.7 µM.
Still for that read-out and setting: then `COc1ccc2c(c1)C(CN1C[C@H]3CC[C@@H](C1)N3c1ccccc1)CC2` (stereo partly drawn) [Example 296, (1R,5S)-3-((6-methoxy-2,3-dihydro-1H-inden-1-yl)methyl)-8-phenyl-3,8-diazabicyclo[3.2.1]octane], with over 10 µM; and `COc1cccc(O[C@@H]2CCN(CC(O)CO[C@@H]3CCc4ccccc43)C2)c1` (stereo partly drawn) [Example 40, 1-(((R)-2,3-dihydro-1H-inden-1-yl)oxy)-3-((R)-3-(3-methoxyphenoxy)pyrrolidin-1-yl)propan-2-ol], with 1.6 µM; and `COc1cccc(OC2CCN(CC3CCOc4ccccc43)CC2)c1` (stereo not drawn) [Example 164, 1-(chroman-4-ylmethyl)-4-(3-methoxyphenoxy)piperidine], with 0.86 µM.
For `OC1(CN2CCC[C@H](Oc3ccc(F)cc3)C2)COCc2ccccc21` (stereo partly drawn) [Example 259, 4-(((S)-3-(4-fluorophenoxy)piperidin-1-yl)methyl)isochroman-4-ol], the IC50 was over 13.3 µM.
As for `COc1ccc2c(c1)C(CN1CCC(Oc3cccnc3)CC1)CC2` (stereo not drawn) [Example 109, 3-((1-((6-methoxy-2,3-dihydro-1H-inden-1-yl)methyl)piperidin-4-yl)oxy)pyridine], the half-maximal inhibitory concentration (IC50) was determined as 1.92 µM.
Same read-out and setting: next, `c1ccc(N2C[C@@H]3C[C@H]2CCN3CC2COCc3ccccc32)cc1` (stereo partly drawn) [Example 322, (1S,5R)-2-(isochroman-4-ylmethyl)-6-phenyl-2,6-diazabicyclo[3.2.1]octane]: over 3.16 µM; `c1ccc2c(c1)CC1(CCN(CC3CCc4cccnc43)CC1)O2` (stereo not drawn) [Example 394, 1′-((6,7-dihydro-5H-cyclopenta[b]pyridin-7-yl)methyl)-3H-spiro[benzofuran-2,4′-piperidine]]: over 10.9 µM; `COc1ccccc1O[C@@H]1CCN(CCN2CCc3ccccc3C2=O)[C@@H]1C` [Example 20, 2-(2-((2R,3R)-3-(2-methoxyphenoxy)-2-methylpyrrolidin-1-yl)ethyl)-3,4-dihydroisoquinolin-1(2H)-one]: 0.01 µM.
With `COc1cccc(O[C@@H]2CCN(CC(O)CO[C@H]3CCc4ccccc43)C2)c1` (stereo partly drawn) [Example 38, 1-(((S)-2,3-dihydro-1H-inden-1-yl)oxy)-3-((R)-3-(3-methoxyphenoxy)pyrrolidin-1-yl)propan-2-ol], the half-maximal inhibitory concentration (IC50) came out at 3.17 µM.
As for `C[C@H]1C[C@]2(CCc3ccccc3O2)CCN1CCN1CCc2ccccc2C1=O` [Example 425, 2-(2-((2S,2′S)-2′-methylspiro[chromane-2,4′-piperidin]-1′-yl)ethyl)-3,4-dihydroisoquinolin-1(2H)-one], the half-inhibitory concentration (IC50) worked out at 0.12 µM.
Consider `Fc1ccc(O[C@H]2CCN(CC3CCc4ccncc43)C2)cc1` (stereo partly drawn) [Example 6, 7-(((S)-3-(4-fluorophenoxy)pyrrolidin-1-yl)methyl)-6,7-dihydro-5H-cyclopenta[c]pyridine], for which the half-inhibitory concentration (IC50) stood at 3 µM.
Consider `COc1ccc2c(c1)C(CN1CCC[C@H](Oc3ccc(F)cc3)C1)CC2` (stereo partly drawn) [Example 256, (3S)-3-(4-fluorophenoxy)-1-((6-methoxy-2,3-dihydro-1H-inden-1-yl)methyl)piperidine], for which the IC50 amounted to 3.99 µM.
Turning to `COc1ccccc1OC1CCN(CC2(C)Cc3cccnc3C2)CC1` (stereo not drawn) [Example 151, 6-((4-(2-methoxyphenoxy)piperidin-1-yl)methyl)-6-methyl-6,7-dihydro-5H-cyclopenta[b]pyridine], the half-maximal inhibitory concentration (IC50) was over 10 µM.
Still for that read-out and setting: then `Fc1ccccc1OC1CCN(CC2COc3ccccc32)CC1` (stereo not drawn) [Example 132, 1-((2,3-dihydrobenzofuran-3-yl)methyl)-4-(2-fluorophenoxy)piperidine], with 0.04 µM; and `Fc1ccc(O[C@@H]2CCN(CC3CCc4cnccc43)C2)cc1` (stereo partly drawn) [Example 1, 5-(((R)-3-(4-fluorophenoxy)pyrrolidin-1-yl)methyl)-6,7-dihydro-5H-cyclopenta[c]pyridine], with 2.3 µM.
